Like-named read-outs stand apart in the source and are kept apart here. Non-standard residues stand in square brackets, D forms with d. Residues, ends and D or L forms follow the SMILES beside them. pGlu = O=C1CC[C@@H](C(=O)O)N1; azaGly = NNC(=O)O
How the values were obtained:
[1] = tested on: early human placental explants; experiment: Placental explant perifusion, hCG release; type: cell-based; settings: for pattern of hCG response: continuous perifusion
Text: Placental tissues that are normally discarded were obtained from unidentified patients following first trimester pregnancy termination (early human placental explants). Tissue fragments, dissected of vessels and membranes, were placed in a perfusion system for study of 20 replicate chambers of the same tissue. This allows for simultaneous dose-response studies to be performed. To achieve this specific aim, explants from a given placenta were placed in 20 replicate chambers and perfused with basal medium for three hours at a rate of 6 ml/hr (dead volume of the system at 6 ml/hr is ten minutes). After three hours of equilibration, the analog was added to the basal perfusing medium. Quaduplicate chambers were made for chicken II GnRH analog (SEQ ID NO: 2) at 0, 10^−9, 10^−8, 10^−7, 10^−6 M and Buserelin (SEQ ID NO: 10) at 10^−7 M. The effluent medium of each chamber was collected after a three hour equilibration period. Two basal samples, at half hour intervals were collected, media with test substances was initiated and effluent medium collection continued for four and one half hours at thirty minute intervals. The hCG release was analyzed in each of these experiments. FIGS. 16 and 17 illustrate a typical response. […] Maximal response was observed within minutes after initiation of perfusion at 10^−8 M, with possible down regulation beginning after five hours at 10^−6 M as illustrated in FIG. 18.
In additional experiments, early gestation human placentas were perfused for six hours with medium supplemented with estradiol, progesterone, bovine serum albumin, and antibiotics (basal medium). Twenty replicate chambers were perifused with basal medium for two hours, then triplicate chambers were perifused with the medium containing either Buserelin (SEQ ID NO: 10), or 10^−9, 10^−8, 10^−7, 10^−6 M of a chicken II GnRH analog (SEQ ID NO: 2), leaving five control chambers. The eluted medium was collected at thirty minute intervals, starting one hour prior to the addition of GnRH analogs and throughout five hours of treatment. hCG released into the effluent media, as well as the production of GnRH, were measured using sensitive and specific radioimmunoassays. The release of hCG at each time point was normalized to its zero treatment release and the release throughout the treatment period and its average release was compared for various treatment regimens. These studies were repeated using tissues from three different first trimester placentas. The results of this experiment are illustrated in FIG. 20.

[2] = tested on: human granulosa cells receptor; experiment: Human granulosa cell receptor binding
Text: Due to the limited number of cells it was not possible to precisely define the affinity of this receptor.

[3] = tested on: human placental GnRH receptor; experiment: Placental GnRH receptor binding, radiolabeled D-Arg(6)-chicken II GnRH-aza-Gly(10)-amide label
Method: The newly synthesized non-mammalian GnRH analogs and other commercially available mammalian GnRH analogs were used in placental receptors binding and enzyme stability study described here. On the basis of these studies, the most receptor potent and enzyme-stable analogs were chosen for further biopotency studies. GnRH receptors were purified from the membrane fractions from placentas. The purification procedure for the placental GnRH receptor was performed using a modification of the method described by Bramley et al., which reference is specifically incorporated herein by reference for the purpose. Addition of enzyme inhibitors for the endogenous C-ase-1 were used as well as agents for receptor stabilization. Initially, receptor-binding assays using ^125I-Buserelin as label were performed. The competitive binding of each of the analogs was studied over a dose range of 10^−11 to 10^−6 M. Incubation was at room temperature and receptor bound label was precipitated with polyethylene glycol. Specific and non-specific binding was determined. The data was subjected to Scatchard analysis. The non-mammalian GnRH analogs' ability to bind to the placental GnRH receptor was compared to that for synthetic mammalian GnRH (SEQ ID NO: 5), Buserelin (SEQ ID NO: 10) and other mammalian analogs. […] This way, the receptor affinity for that analog could be precisely determined. Receptors from three different term placentas were used to study each of these analogs. […] Bramley T A, McPhie C A, Menzies G S 1994 Human placental gonadotropin-releasing hormone (GnRH) binding sites: 111. Changes in GnRH binding levels with stage of gestation. Placenta 15:733-745.
In these and additional studies, placental GnRH receptors were purified from human term placentas after homogenization in 40 mM Tris (pH 7.4) and filtered through cheesecloth, followed by an initial centrifugation at 1,000×g for 10 minutes. The resulting supernatant was, again, centrifuged at 35,000×g for 30 minutes and the membrane pellet was collected and resuspended in Tris buffer with 0.3 M sucrose. The protein concentration was determined. Membranes were stored frozen at −20 C until use. Before use, placental membranes were diluted to 5,000 μg/mL with Tris buffer containing 0.5% BSA and 50 U/mL bacitracin. Placental membranes (100 μL) were used with varying concentrations of mammalian GnRH (SEQ ID NO: 5), Buserelin (SEQ ID NO: 10), chicken II GnRH (SEQ ID NO: 6), D-Arg (6)-chicken II GnRH-des-Gly (10)-ethylamide (SEQ ID NO: 2), or D-Arg (6)-chicken II GnRH-aza-Gly (10)-amide (SEQ ID NO: 2) (100 μL) and either radiolabeled Buserelin (SEQ ID NO: 10) or radiolabeled D-Arg (6)-chicken II GnRH-aza-Gly (10)-amide (SEQ ID NO: 2) (100 μL/tube and iodinated). Following incubation at room temperature for 4 hours, the bound and free hormones were separated using polyethylene glycol precipitation, followed by centrifugation. The binding affinity for each GnRH isoform or analog was calculated using the double reciprocal plot of bound versus free ligand. Each study was done using three different human term placental tissues.

[4] = molecular target: baboon ovary GnRH receptor; experiment: Baboon ovary membrane GnRH receptor binding; settings: baboon ovary membranes; read-out: GnRH receptor affinity
Method: The receptor binding activity of newly synthesized non-mammalian GnRH analogs was studied in ovarian and uterine tissues. […] The ovaries of the three baboons were extracted and the cytosolic and membrane fractions were recovered for the tissues. The membrane fraction from one animal was titred for GnRH receptor binding activity using D-Arg(6)-chicken II GnRH-aza-Gly(10)-amide radiolabeled ligand. Receptors were clearly demonstrable even at 4 μg membrane protein/tube. […] The chicken II GnRH analog (SEQ ID NO: 2) had the highest affinity for any GnRH analog reported to date.

N=C(N)NCCC[C@@H](NC(=O)[C@H](Cc1c[nH]cn1)NC(=O)[C@H](CO)NC(=O)[C@H](Cc1c[nH]c2ccccc12)NC(=O)[C@H](Cc1c[nH]cn1)NC(=O)[C@@H]1CCC(=O)N1)C(=O)N[C@@H](Cc1c[nH]c2ccccc12)C(=O)N[C@@H](Cc1ccc(O)cc1)C(=O)N1CCC[C@H]1C(=O)NNC(N)=O [D-Arg(6)-chicken II GnRH-aza-Gly(10)-amide] ([pGlu]HWSH[dR]WYP[azaGly]-NH2)
concentration giving maximal hCG response ([1]; 10^−9 to 10^−6 M tested): 10^−8 M
pattern of hCG response ([1]; listed as Chicken II GnRH analog): dose related biphasic response
pattern of hCG response ([1]; listed as chicken II GnRH analog): biphasic stimulation of hCG
receptor binding [2]: receptor binding for the GnRH analog was observed
binding affinity compared with mammalian GnRH ([3]; analog label): 25 fold
Kd ([3]; placenta 2 membrane preparation, read-out: affinity constant (Ks)): 68 nM
Kd ([3]; three placental membrane preparations, read-out: average binding affinity): 93 ± 23 nM
enhancement of affinity when the analog is used as label ([3]; versus Buserelin label): 2 fold
Kd [4]: 10 nM

From patent US20050282745A1, “Non-mammalian GnRH analogs and uses thereof in regulation of fertility and pregnancy” (priority 2001, published 2005)
